Results on two compounds are retold here after US9648880B2, “Antifungal agents and uses thereof” (University of Massachusetts, priority 2012, dated 2017).

Holding throughout (format): cell-based, Candida albicans
Experiment [1] deals with C. albicans adherence to human lung epithelial A549 cells. The experiment in a line: epithelial cell binding assay. Particulars: 25 μM; 37° C., 90 min. The text has this: In addition to experiments with inert surfaces, we also tested how the candidate compounds would affect C. albicans adherence to human cells, measuring binding of Green Fluorescent Protein (GFP)-encoding C. albicans cells to monolayers of human lung epithelial A549 cells, which are an effective substrate for Candida adhesion (Kitamura, Antimicrob Agents Chemother. 53: 3963-3971, 2009). […] We conclude that compound #4 is not toxic to this human cell line under our assay concentrations, but can impair fungal adhesion both to inert surfaces and to cultured human epithelial cells.
Human lung epithelial A549 cells (Giard, 1973) were grown to confluence on Nunc 48 well plates in RPMI+10% FBS and Penicillin/Streptomycin. Media was decanted and plates were carefully washed 3 times with PBS to remove unbound cells. Pre-grown overnight cultures of SC5314-GFP and edt1^−/−-GFP C. albicans cells were resuspended in fresh SC+0.2% glucose at 0.5 OD/ml and 250 μl of yeast suspension were plated onto to each well. Following incubation at 37° C. for 1.5 hours, media was decanted, and the monolayers were washed carefully 3 times with 250 μl PBS. Fluorescence from bound yeast was measured (485 Ex/535 Em) using the Synergy HT plate reader (BioTek) after addition of 100 μl PBS/well.

The next experiment relates to C. albicans. Put plainly: pretreatment (pre-coating) of polystyrene, then adhesion assay. Here is the method: FIGS. 11A-11D. Compound #4 can coat surfaces and reduce subsequent fungal adhesion. […] is a graph showing the results of pretreatment of polystyrene with candidate compounds. Indicated compounds at 50 μM were incubated in polystyrene 96-well plates overnight. Wells were washed three times with 100 μl of PBS. C. albicans adhesion was then measured using the vital dye alamarBlue, with no additional drug treatment. FIG. 11B is a graph showing titration of compounds #1, 4 and 9 for pre-binding to polystyrene. Indicated concentrations of compounds were pre-incubated with polystyrene plates as above prior to the adhesion assays. FIG. 11C is a graph showing the inhibition of adhesion by pretreatment of C. albicans SC5314 cells with compound #4 prior to introduction to plastic. SC5314 cells were treated with 25 μM compound #4 or DMSO in liquid culture prior to their introduced into polystyrene plates. Cells were washed with PBS prior to resuspension into SCM and seeding into 96-well plates for adhesion assays using alamarBlue detection of remaining cells. The pretreated cells were assayed alongside a standard adhesion assay in which compound #4 and the cells were coincubated with the plastic simultaneously. FIG. 11D is a graph showing the results of an assay performed as in FIG. 11C, except that SC5314-GFP cells were used, and then detected via fluorescence measurement. edt1 indicates non-adherent mutant cells, PBS indicates background fluorescence in absence of cells.
Because compounds #4 and #9 contain a nitrophenyl group (FIG. 3A), solutions containing these appear yellow. […] To test this idea, we preincubated polystyrene plates with each of the compounds that affect adhesion to polystyrene, washed to remove unbound compound molecules, and then added C. albicans cells to measure adhesion without further addition of compound.
To distinguish the three pre-coating compounds, we then titrated them in this pre-coating assay (FIG. 11B). […] We also tested whether compound #4 could affect fungal adhesion when it was used to pre-coat C. albicans cells rather than the polystyrene surface. […] We conclude that compound #4 has the ability to make polystyrene and the C. albicans cell surface less amenable to subsequent adhesion.

For experiment [2], the system named is C. albicans SC5314-GFP biofilm. The experiment in a line: biofilm formation on silicone elastomers. Particulars: for dry weight of biofilm / biofilm formation, visual inspection: 50 μM, 60 hrs; for biofilm formation, visual inspection: silicone mesh. Here is the method:
FIGS. 5A-5C. Effect of small molecules on biofilm formation in vitro. FIG. 5A is a series of photographs showing biofilm formation on silicone elastomers. Biofilm assay was performed with SC5314-GFP and edt1^Δ/Δ-GFP and photographed after 60 hrs. Indicated compounds were added at 50 μM. Turbid medium indicates planktonic cells unattached to silicone elastomers when biofilm formation is inhibited. Clear medium with the cell attached to the silicone elastomer indicate establishment of functional biofilm. Each treatment was done in triplicate. FIG. 5B is a graph showing quantitation of turbidity of medium. Media was removed from the wells, vortexed vigorously and the OD at 600 nm was measured in a spectrophotometer. FIG. 5C is a graph showing quantitation of dry weight of biofilm. Dry weight in mg of air-dried silicone elastomers.
Fungal biofilm formation on implanted medical devices is a serious medical problem because these biofilms can lead to life-threatening systemic infections. An established in vitro assay to study device colonization makes use of silicone mesh as a surrogate surface (Nobile, 2006). We tested how the compounds that affected polystyrene adhesion (FIG. 1) would affect biofilm formation by visual inspection of the biofilms formed, by measuring the optical density of the supernatant liquid cultures, and by measuring their dry weights. […] Therefore, compounds #4 and Q1 were effective inhibitors of both hyphal morphogenesis (FIG. 4) and biofilm formation on silicone mesh (FIG. 5).
We adapted a published method (Nobile, 2006, supra). Autoclaved, pre-weighed silicone mesh squares (Bentec, Catalog Number PR72034-04N) were incubated overnight at 37° C. with undiluted bovine serum. Following washing with PBS, the squares were transferred to 12-well plates and incubated with 0.5 OD/ml SC5314-GFP cells in Spider medium (with or without drugs as indicated), for 90 min at 37° C., shaking at 200 rpm. Squares were washed in PBS and transferred to new 12-well plates containing fresh Spider medium with fresh drugs and incubated for 60 hrs in a 37° C. shaker at 200 rpm. The plates were then photographed, the liquid media were collected for A600 nm measurements, and the dry weights of the bound biofilms were measured following drying of the silicone squares in a chemical hood.

“Also recorded” adds a separate entry of the source.

Regarding `Cc1ccc(C(=O)N2CCN(c3ccc([N+](=O)[O-])cc3)CC2)cc1Cl` [Compound 4], the “inhibition of C. albicans adhesion to human A549 cells” value in experiment [1] was “by far the strongest inhibitor of adhesion to human epithelial cells; also recorded: strongly inhibited”. The “subsequent adhesion of C. albicans to pre-coated polystyrene” value in the experiment on C. albicans (12.5 μM or below) is recorded as “much less so”; with C. albicans (25 μM), “strongly inhibitory”; in the experiment with C. albicans (50 μM, overnight, washed), “efficiently inhibited subsequent adhesion”. Moreover, the “dry weight of biofilm” value in experiment [2] is given as “most effective at reducing biofilm formation”. In addition, the “biofilm formation, visual inspection” value in experiment [2] is “most effectively kept the cells dispersed in the media rather than on the mesh”. For the same compound, the “biofilm formation on silicone mesh” value in experiment [2] (Example 14) is “effective inhibitors of both hyphal morphogenesis and biofilm formation on silicone mesh”.
Turning to `O=C(c1ccc(Cl)c(Cl)c1)N1CCN(c2ccc([N+](=O)[O-])cc2)CC1` [Compound 9], in experiment [1], the “inhibition of C. albicans adhesion to human A549 cells” value is given as “not #9 effectively inhibited human cell binding”. Besides, the “subsequent adhesion of C. albicans to pre-coated polystyrene” value in the experiment on C. albicans (12.5 μM or below) is listed as “much less so”; in the experiment with C. albicans (25 μM) it was “strongly inhibitory”; with C. albicans (50 μM, overnight, washed), “efficiently inhibited subsequent adhesion”. Further, in experiment [2], the “dry weight of biofilm” value was “most effective at reducing biofilm formation”. Also, the “biofilm formation, visual inspection” value in experiment [2] was “most effectively kept the cells dispersed in the media rather than on the mesh”.
